Tests used:
[1] = tested on: near cognate start codon initiation in HEK293T cells; assay: Firefly luciferase reporter with AUG or near cognate start codons; type: cell-based, human; details: 5 μM, 16 h
Description: FIGS. 4A-L: The effect eIF1-eIF4G1 inhibition by i14G1-10 or i14G1-12 on global translation is linked to start codon stringency. (4A) HEK293T cells were treated with DMSO, i14G1-10 (20 μM), and i14G-20 (10 μM) for 3 h and then ribosome foot printing libraries were prepared, sequenced and analyzed as described in the scheme. The presented graphs show meta-gene analysis of the distribution of normalized reads in the coding region (CDS) and 5′UTR of all analyzed genes in DMSO (black), i14G1-10 (blue), and i14G1-12 (red). […] (4F) The translation efficiency of eIF1 in DMSO, i14G1-10 and i14G1-12 samples calculated from the Ribo-seq data. […] (4J) Scatter plots showing the translation efficiencies correlations (R2 >0.9) of all analyzed genes between the two independent replicate experiments with DMSO (vehicle control) (top), i14G1-10 (middle), and i14G1-12 (bottom). (4K) Scatter plots showing the translation efficiencies correlations between 5′UTR and CDS (Pearson's r >0.5) of all analyzed genes of two independent replicate experiments with i14G1-10 (left) and i14G1-12 (right).
Reporter assays. […] The luminescence was measured on Turner Biosystems Luminometer.
Next, the sequence context of the translation initiation site (TIS) in the ribosome footprints of the 5′UTR in DMSO, i14G1-10 or i14G1-12 samples was determined. To assign the 5′UTR TISs, the Hrr+CHX reads were used (see Materials and Methods). […]

[2] = tested on: P. falciparum translation; assay: Puromycin incorporation western blot in P. falciparum blood cultures; type: cell-based, Plasmodium falciparum; details: i14G1-10 20 uM, i14G1-12 10 uM; 1 hour, puromycin 5 minutes
Description: FIGS. 8A-B: (8A) Bar graph of percent parasitemia in blood samples treated with i14G1-10 (20 μM) and i14G1-12 (10 μM) for 1 hour. DMSO treatment was used as a negative control. *=pVal; <0.05, ***=pVal<0.001 (8B) Photograph of a western blot and corresponding gel total protein staining of P. falciparum blood cultures treated with the inhibitors with or without the addition of puromycin. DMSO treatment and untreated cultures were used as a negative control.
Next, the method of action that caused the growth/survival inhibition was tested. […] Puromycin labels newly synthesized proteins and cell lysates were analysed by western blot with anti-puromycin antibody (FIG. 8B).

Cn1ccnc1S/C(=C/C=C(C#N)C#N)c1ccc(Cl)cc1 [i14G1-12]
near cognate start codon reporter activities relative to AUG [1]: significantly enhanced the activities of ACG, CUG, GUG, and UUG relative to AUG
protein synthesis (puromycin incorporation) [2]: inhibited protein synthesis

O=C(/C=C/Sc1ccc(C(F)(F)F)cn1)c1ccccc1 [i14G1-10]
near cognate start codon reporter activities relative to AUG [1]: significantly enhanced the activities of ACG, CUG, GUG, and UUG relative to AUG
protein synthesis (puromycin incorporation) [2]: inhibited protein synthesis
